Source: patent publication US10358446B2, “Bruton's tyrosine kinase inhibitors” (Zibo Biopolar Changsheng Pharmaceutical Co. Ltd., priority 2015, dated 2019)

Each molecule was assayed against BTK (Homo sapiens (Human), UniProt Q06187) (assay: Btk kinase assay (HTRF)). Details: [ATP]=80 μM, BTK=3.4 nM; read-out: BTK Inhibition.
Assay type: biochemical
In short: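 BTK (3.4 nM) incubated 1 h with inhibitor, 80 μM ATP and 1 μM peptide substrate in 50 mM HEPES pH 7.0 with BSA and orthovanadate. Reaction stopped with EDTA plus Eu-antibody/XL665; HTRF 665/615 ratio read after 1 h, IC50 calculated relative to no-inhibitor and no-enzyme controls.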

BTK, sequence (Q06187 whole entry, species assumed): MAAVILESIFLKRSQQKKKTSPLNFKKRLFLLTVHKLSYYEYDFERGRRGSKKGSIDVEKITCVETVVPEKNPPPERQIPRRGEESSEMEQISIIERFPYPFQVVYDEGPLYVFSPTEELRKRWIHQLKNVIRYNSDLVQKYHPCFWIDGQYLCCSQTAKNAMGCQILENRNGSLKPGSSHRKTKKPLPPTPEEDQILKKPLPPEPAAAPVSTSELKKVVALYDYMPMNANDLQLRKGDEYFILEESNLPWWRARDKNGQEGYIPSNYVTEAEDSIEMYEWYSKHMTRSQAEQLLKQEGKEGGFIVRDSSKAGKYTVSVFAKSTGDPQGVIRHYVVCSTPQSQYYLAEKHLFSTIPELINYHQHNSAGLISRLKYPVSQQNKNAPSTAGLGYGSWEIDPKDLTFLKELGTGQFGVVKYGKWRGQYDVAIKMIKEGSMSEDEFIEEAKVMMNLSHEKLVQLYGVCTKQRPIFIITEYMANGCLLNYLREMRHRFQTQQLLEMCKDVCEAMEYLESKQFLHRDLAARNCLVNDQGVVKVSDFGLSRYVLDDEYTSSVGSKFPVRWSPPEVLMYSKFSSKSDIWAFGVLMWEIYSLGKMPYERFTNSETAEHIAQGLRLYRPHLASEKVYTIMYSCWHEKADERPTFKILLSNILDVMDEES

Row | Structure (SMILES) | IC50
1 | C=CC(=O)Nc1cccc(-n2c(=O)n(-c3ccc(OCc4ccccc4F)c(F)c3)c3cnccc32)c1 [Example 217, N-(3-(3-(3-fluoro-4-((2-fluorobenzyl)oxy)phenyl)-2-oxo-2,3-dihydro-1H-imidazo[4,5-c]pyridin-1-yl)phenyl)acrylamide] | 100 to 1000 nM
2 | C=CC(=O)N1CC[C@H](n2c(=O)n(-c3ccc(Oc4ccccc4)cc3)c3/c(=N/O)[nH]cnc32)C1 [Example 177, (S,Z)-9-(1-acryloylpyrrolidin-3-yl)-6-(hydroxyimino)-7-(4-phenoxyphenyl)-7,9-dihydro-1H-purin-8(6H)-one] | 100 to 1000 nM
3 | C=CC(=O)N1CC[C@@H](n2c(=O)n(-c3ccc(Oc4cccc(Cl)c4OC)cc3)c3cnccc32)C1 [Example 63, (R)-1-(1-acryloylpyrrolidin-3-yl)-3-(4-(3-chloro-2-methoxyphenoxy)phenyl)-1H-imidazo[4,5-c]pyridine-2(3H)-one] | 10 to 100 nM
4 | C=CC(=O)N1CCC(n2c(=O)n(-c3ccc(Oc4ccncc4)cc3)c3cnccc32)C1 (centres unmarked) [Example 164, 1-(1-acryloylpyrrolidin-3-yl)-3-(4-(pyridin-4-yloxy)phenyl)-1H-imidazo[4,5-c]pyridin-2(3H)-one] | 1000 to 10000 nM
5 | C=CC(=O)Nc1cccc(-n2c(=O)n(-c3ccc(OCc4ccccc4)cc3)c3cnccc32)c1 [Example 239] | 100 to 1000 nM
6 | C=CC(=O)Nc1cccc(-n2c(=O)n(-c3ccc(NC(=O)c4ccccc4)cc3)c3cnccc32)c1 [Example 261, N-(4-(1-(3-acrylamidophenyl)-2-oxo-1H-imidazo[4,5-c]pyridin-3(2H)-yl)phenyl)benzamide] | 100 to 1000 nM
7 | C=CC(=O)N1CC[C@@H](n2c(=O)n(-c3ccc(Oc4cccnc4)cc3)c3cnccc32)C1 [Example 68, (R)-1-(1-acryloylpyrrolidin-3-yl)-3-(4-(pyridin-3-yloxy)phenyl)-1H-imidazo[4,5-c]pyridin-2(3H)-one] | 100 to 1000 nM
8 | C=CC(=O)Nc1cccc(-n2c(=O)n(-c3ccc(Oc4ccc(C(F)(F)F)cc4)cc3)c3cnccc32)c1 [Example 123, N-(3-(2-oxo-3-(4-(4-(trifluoromethyl)phenoxy)phenyl)-2,3-dihydro-1H-imidazo[4,5-c]pyridin-1-yl)phenyl)acrylamide] | ≥ 10000 nM
9 | C=CC(=O)Nc1cccc(-n2c(=O)n(-c3cccc(NC(=O)c4ccc(C(C)(C)C)cc4)c3)c3cnccc32)c1 [Example 260, N-(3-(1-(3-acrylamidophenyl)-2-oxo-1H-imidazo[4,5-c]pyridin-3(2H)-yl)phenyl)-4-(tert-butyl)benzamide] | 10 to 100 nM
10 | C=CC(=O)N1CC[C@@H](n2c(=O)n(-c3ccc(Oc4cccc(OC)c4C)cc3)c3cnccc32)C1 [Example 143, (R)-1-(1-acryloylpyrrolidin-3-yl)-3-(4-(3-methoxy-2-methylphenoxy)phenyl)-1H-imidazo[4,5-c]pyridin-2(3H)-one] | 10 to 100 nM
11 | C=CC(=O)N1CCC(n2c(=O)n(-c3ccc(Oc4ccccc4)cc3)c3cnccc32)CC1 [Example 30, 1-(1-acryloylpiperidin-4-yl)-3-(4-phenoxyphenyl)-1H-imidazo[4,5-c]pyridin-2(3H)-one] | ≥ 10000 nM
12 | C=CC(=O)Nc1cccc(-n2c(=O)n(-c3ccc(OCc4ccccc4Cl)cc3)c3cnccc32)c1 [Example 231, N-(3-(3-(4-((2-chlorobenzyl)oxy)phenyl)-2-oxo-2,3-dihydro-1H-imidazo[4,5-c]pyridin-1-yl)phenyl)acrylamide] | 10 to 100 nM
13 | C=CC(=O)N1CC[C@@H](n2c(=O)n(-c3ccc(Oc4cccc(OC)c4F)cc3)c3cnccc32)C1 [Example 191, (R)-1-(1-acryloylpyrrolidin-3-yl)-3-(4-(2-fluoro-3-methoxyphenoxy)phenyl)-1H-imidazo[4,5-c]pyridin-2(3H)-one] | ≤ 10 nM
14 | C=CC(=O)Nc1cccc(-n2c(=O)n(-c3ccc(Oc4ccc(OC)cc4)cc3)c3cnccc32)c1 [Example 80, N-(3-(3-(4-(4-methoxyphenoxy)phenyl)-2-oxo-2,3-dihydro-1H-imidazo[4,5-c]pyridin-1-yl)phenyl)acrylamide] | 100 to 1000 nM
15 | C=CC(=O)N1CC[C@@H](n2c(=O)n(-c3ccc(OCc4cc(F)cc(F)c4)c(Cl)c3)c3cnccc32)C1 [Example 207, (R)-1-(1-acryloylpyrrolidin-3-yl)-3-(3-chloro-4-((3,5-difluorobenzyl)oxy)phenyl)-1H-imidazo[4,5-c]pyridin-2(3H)-one] | 100 to 1000 nM

Now from value to molecule:

Row | IC50 | Structure (SMILES)
16 | 1000 to 10000 nM | C=CC(=O)Nc1cccc(-n2c(=O)n(-c3ccc(Oc4cccc(OC(C)C)c4)c(C)c3)c3cnccc32)c1 [Example 46, N-(3-(3-(4-(3-isopropoxyphenoxy)-3-methylphenyl)-2-oxo-2,3-dihydro-1H-imidazo[4,5-c]pyridin-1-yl)phenyl)acrylamide]
17 | 10 to 100 nM | C=CC(=O)N1CC[C@@H](n2c(=O)n(-c3ccc(Oc4ccc(Cl)c(Cl)c4)c(Cl)c3)c3cnccc32)C1 [Example 44, (R)-1-(1-acryloylpyrrolidin-3-yl)-3-(3-chloro-4-(3,4-dichlorophenoxy)phenyl)-1H-imidazo[4,5-c]pyridin-2(3H)-one]
18 | 100 to 1000 nM | C=CC(=O)N1CC[C@@H](n2c(=O)n(-c3ccc(OCc4ccc(C(F)(F)F)cc4)c(Cl)c3)c3cnccc32)C1 [Example 205, (R)-1-(1-acryloylpyrrolidin-3-yl)-3-(3-chloro-4-((4-(trifluoromethyl)benzyl)oxy)phenyl)-1H-imidazo[4,5-c]pyridin-2(3H)-one]
19 | 10 to 100 nM | C=CC(=O)N1CC[C@@H](n2c(=O)n(-c3ccc(Oc4cc(Cl)cc(OC)c4)cc3)c3cnccc32)C1 [Example 9, (R)-1-(1-acryloylpyrrolidin-3-yl)-3-(4-(3-chloro-5-methoxyphenoxy)phenyl)-1H-imidazo[4,5-c]pyridin-2(3H)-one]
20 | 100 to 1000 nM | C=CC(=O)N1CC[C@@H](n2c(=O)n(-c3ccc(NC(=O)c4ccc(OC)c(C(F)(F)F)c4)cc3)c3cnccc32)C1 [Example 268, (R)-N-(4-(1-(1-acryloylpyrrolidin-3-yl)-2-oxo-1H-imidazo[4,5-c]pyridin-3(2H)-yl)phenyl)-4-methoxy-3-(trifluoromethyl)benzamide]
21 | ≤ 10 nM | C=CC(=O)N1CC[C@@H](n2c(=O)n(-c3ccc(Oc4cccc(OC)c4F)cc3)c3cncc(C)c32)C1 [Example 172, (R)-1-(1-acryloylpyrrolidin-3-yl)-3-(4-(2-fluoro-3-methoxyphenoxy)phenyl)-7-methyl-1H-imidazo[4,5-c]pyridin-2(3H)-one]
22 | 10 to 100 nM | C=CC(=O)Nc1cccc(-n2c(=O)n(-c3cccc(Oc4cccc(OC)c4)c3)c3cnccc32)c1 [Example 87, N-(3-(3-(3-(3-methoxyphenoxy)phenyl)-2-oxo-2,3-dihydro-1H-imidazo[4,5-c]pyridin-1-yl)phenyl)acrylamide]
23 | 10 to 100 nM | C=CC(=O)Nc1cccc(-n2c(=O)n(-c3cccc(Oc4cccc(Cl)c4F)c3)c3cnccc32)c1 [Example 96, N-(3-(3-(3-(3-chloro-2-fluorophenoxy)phenyl)-2-oxo-2,3-dihydro-1H-imidazo[4,5-c]pyridin-1-yl)phenyl)acrylamide]
24 | 100 to 1000 nM | CC#CC(=O)N1CCC[C@@H](n2c(=O)n(-c3ccc(Oc4cccc(OC)c4F)cc3)c3cnccc32)C1 [Example 175, (R)-1-(1-(but-2-ynoyl)piperidin-3-yl)-3-(4-(2-fluoro-3-methoxyphenoxy)phenyl)-1H-imidazo[4,5-c]pyridin-2(3H)-one]
25 | 100 to 1000 nM | C=CC(=O)N1CCC(n2c(=O)n(-c3ccc(Oc4cccnn4)cc3)c3cnccc32)C1 (centres unmarked) [Example 165, 1-(1-acryloylpyrrolidin-3-yl)-3-(4-(pyridazin-3-yloxy)phenyl)-1H-imidazo[4,5-c]pyridin-2(3H)-one]
26 | 100 to 1000 nM | C=CC(=O)Nc1cccc(-n2c(=O)n(-c3ccc(Oc4cc(Cl)cc(OC)c4)cc3)c3cnccc32)c1 [Example 71, N-(3-(3-(4-(3-chloro-5-methoxyphenoxy)phenyl)-2-oxo-2,3-dihydro-1H-imidazo[4,5-c]pyridin-1-yl)phenyl)acrylamide]
27 | 100 to 1000 nM | C=CC(=O)N1CC[C@@H](n2c(=S)n(-c3ccc(Oc4cccc(C)c4)cc3)c3cnccc32)C1 [Example 11, (R)-1-(3-(2-thioxo-3-(4-(m-tolyloxy)phenyl)-2,3-dihydro-1H-imidazo[4,5-c]pyridin-1-yl)pyrrolidin-1-yl)prop-2-en-1-one]
28 | 10 to 100 nM | C=CC(=O)N1CCC[C@@H](n2c(=O)n(-c3ccc(Oc4cccc(OC)c4C)cc3)c3cnccc32)C1 [Example 142, (R)-1-(1-acryloylpiperidin-3-yl)-3-(4-(3-methoxy-2-methylphenoxy)phenyl)-1H-imidazo[4,5-c]pyridin-2(3H)-one]
29 | 1000 to 10000 nM | C=CC(=O)Nc1cccc(-n2c(=O)n(-c3ccc(C(=O)N4CCOCC4)cc3)c3cnccc32)c1 [Example 253, N-(3-(3-(4-(morpholine-4-carbonyl)phenyl)-2-oxo-2,3-dihydro-1H-imidazo[4,5-c]pyridin-1-yl)phenyl)acrylamide]
30 | 100 to 1000 nM | CC#CC(=O)N1CCC[C@@H]1Cn1c(=O)n(-c2ccc(Oc3cccc(OC)c3F)cc2)c2cncc(C)c21 [Example 169, (R)-1-((1-(but-2-ynoyl)pyrrolidin-2-yl)methyl)-3-(4-(2-fluoro-3-methoxyphenoxy)phenyl)-7-methyl-1H-imidazo[4,5-c]pyridin-2(3H)-one]
31 | 100 to 1000 nM | C=CC(=O)Nc1cccc(-n2c(=O)n(-c3ccc(Oc4cccc(OC(C)C)c4)c(Cl)c3)c3cnccc32)c1 [Example 145, N-(3-(3-(3-chloro-4-(3-isopropoxyphenoxy)phenyl)-2-oxo-2,3-dihydro-1H-imidazo[4,5-c]pyridin-1-yl)phenyl)acrylamide]
32 | 10 to 100 nM | C=CC(=O)Nc1cccc(-n2c(=O)n(-c3ccc(Oc4ccccc4)c(Cl)c3)c3cnccc32)c1 [Example 73, N-(3-(3-(3-chloro-4-phenoxyphenyl)-2-oxo-2,3-dihydro-1H-imidazo[4,5-c]pyridin-1-yl)phenyl)acrylamide]
